Test results published in US7332489B2, “Methods and compositions of novel triazine compounds” (Reddy US Therapeutics, Inc., priority 2003, dated 2008).
Counter-ions that a name gives are not always drawn. Like-named read-outs stand apart in the source and are kept apart here.

System: TNF-α induced IL-6
Assay: TNF-α-induced IL-6 production determined by IL-6 ELISA
Type: cell-based
Conditions: for activity at 10 µM: class = % of control IL6 production
Experimental: Human aortic endothelial cells (HAEC, Clonetics) were cultured according to manufacturer in growth medium (Clonetics): basal medium containing human epidermal growth factor, hydrocortisone, vascular endothelial growth factor, heparin binding growth factor-B, long R3-insulin-like growth factor-1, ascorbic acid, gentamicin/amphotericin and 5% FBS. These cell were allowed to reach at least 90% confluency before subjected to experimental treatments. […] Tumor necrosis factor α was from R&D Systems.
All treatments, compound-added and controls were carried out in serum free media containing 0.2% albumin. Media from all conditions were collected and used for IL-6 ELISA.
IL-6 ELISA was carried out using human IL-6 DuoSet ELISA development kit as described by manufacturer (R&D Systems). Mouse anti-human Il-6 was used as the capture antibody (2 ug/ml) and biotinylated goat anti-human IL-6 (200 ng/ml) was used as the detection antibody. Culture media were incubated with capture antibody (in 96 well) for 2 h at room temperature. Wells were washed three times with wash buffer (0.05% tween-20 in phosphate buffered saline (PBS) pH 7.4) followed by incubation with detection antibody for 2 h at room temperature. Following three washes wells were incubated with Streptavidin-HRP for 20 min. Color development was read at 450 nm in a Microplate reader.

[1] = Homo sapiens, 24 h, Table 5, first part, read-out: Inhibition of TNF-induced IL6 production
[2] = Homo sapiens, 24 h, Table 5, second part, column 1, read-out: Inhibition of TNF-induced IL6, production

Row | Compound | activity at 10 µM [1] | activity at 10 µM [2] | further results
1 | c1ccc(Nc2nc(NC3CCCCCC3)nc(N3CCOCC3)n2)cc1 [Compound 176, N-Cycloheptyl-6-morpholin-4-yl-N′-phenyl-[1,3,5]tri-azine-2,4-diamine] |  |  | inhibition at 10 µM (Homo sapiens, 24 h, Table 7, first part, read-out: Inhibition of TNF-induced IL6 production): 85 to 100%
2 | CCN1CCCC1CNc1nc(NCCN(C)C)nc(Nc2ccc(OC)c(F)c2)n1 (stereo not drawn) [Compound 68, N^2-[2-(dimethylamino)ethyl]-N^4-[(1-ethyl-2-pyrrolidinyl)methyl]-N^6-(3-fluoro-4-methoxyphenyl)-1,3,5-triazine-2,4,6-triamine] | 0 to 25% | 25 to 50% | 
3 | COc1ccc(Nc2nc(NC3CCCCCC3)nc(N(C)C3CCN(C)CC3)n2)cc1F [Compound 169, N^2-cycloheptyl-N^4-(3-fluoro-4-methoxy-phenyl)-N^6-methyl-N^6-(1-methyl-piperidin-4-yl)-1,3,5-triazine-2,4,6-triamine succinate salt] |  |  | % IL6 production compare to TNF stimulation of IL6 (100%), HAEC, IL6, @ 5 uM (HAEC, TNF stimulated, compound 5 uM (bracketed value), succinate salt): 45%
4 | COc1ccc(Nc2nc(NC3CCCCCC3)nc(OC3CCNCC3)n2)cc1Cl |  |  | Inflammation Data, cell death at 10 uM (10 uM): 20%
5 | COc1ccc(Nc2nc(NCCCn3ccnc3)nc(NC3CCCCCC3)n2)cc1F [Compound 100, N^2-cycloheptyl-N^4-(3-fluoro-4-methoxyphenyl)-N^6-[3-(1H-imidazol-1-yl)propyl]-1,3,5-triazine-2,4,6-triamine] |  | 0 to 25% | 
6 | CCN1CCCC1CNc1nc(NC2CCCCCC2)nc(N(C)c2ccc(Cl)cc2)n1 (stereo not drawn) [Compound 40, N^2-(4-chlorophenyl)-N^4-cycloheptyl-N^6-[(1-ethyl-2-pyrrolidinyl)methyl]-N^2-methyl-1,3,5-triazine-2,4,6-triamine] |  | 0 to 25% | 
7 | CCN1CCCC1CNc1nc(Nc2ccc(N3CCOCC3)cc2)nc(NC2CCCCCC2)n1 (stereo not drawn) [Compound 27, N^2-cycloheptyl-N^4-[(1-ethyl-2-pyrrolidinyl)methyl]-N^6-[4-(4-morpholinyl)phenyl]-1,3,5-triazine-2,4,6-triamine] | 0 to 25% | 0 to 25% | 
8 | CCN1CCCC1CNc1nc(Nc2ccc(OC)c(F)c2)nc(NC2CCC(C)CC2)n1 (stereo not drawn) [Compound 60, N^2-[(1-ethyl-2-pyrrolidinyl)methyl]-N^4-(3-fluoro-4-methoxyphenyl)-N^6-(4-methylcyclohexyl)-1,3,5-triazine-2,4,6-triamine] | 0 to 25% |  | 
9 | COc1ccc(Nc2nc(NC3CCCCCC3)nc(N3CCN(CC(=O)N4CCCC4)CC3)n2)cc1F [Compound 94, N^2-cycloheptyl-N^4-(3-fluoro-4-methoxyphenyl)-6-{4-[2-oxo-(1-pyrrolidinyl)ethyl]-1-piperazinyl}-1,3,5-triazine-2,4-diamine] | 25 to 50% | 0 to 25% | 
10 | CCN1CCCC1CNc1nc(Nc2ccc(NC(C)=O)cc2)nc(NC2CCCCCC2)n1 (stereo not drawn) [Compound 29, N-{4-[(4-(cycloheptylamino)-6-{[(1-ethyl-2-pyrrolidinyl)methyl]amino}-1,3,5-triazin-2-yl)-amino]phenyl}acetamide] | 0 to 25% | 0 to 25% | 
11 | CCN1CCCC1CNc1nc(Nc2cccc(NC(C)=O)c2)nc(NC2CCCCCC2)n1 (stereo not drawn) [Compound 30, N-{3-[(4-(cycloheptylamino)-6-{[(1-ethyl-2-pyrrolidinyl)methyl]amino}-1,3,5-triazin-2-yl)-amino]phenyl}acetamide] | 0 to 25% | 0 to 25% | 
12 | CCN1CCCC1CNc1nc(Nc2ccc(OC)c(Cl)c2)nc(NC2CCCCCC2)n1 (stereo not drawn) [Compound 48, N^2-(3-chloro-4-methoxyphenyl)-N^4-cycloheptyl-N^6-[(1-ethyl-2-pyrrolidinyl)methyl]-1,3,5-triazine-2,4,6-triamine] | 25 to 50% |  | 
13 | CCN1CCCC1CNc1nc(NC2CCCCCC2)nc(N(CCC#N)c2ccccc2)n1 (stereo not drawn) [Compound 41, 3-[(4-(cycloheptylamino)-6-{[(1-ethyl-2-pyrrolidinyl)methyl]amino}-1,3,5-triazin-2-yl)-(phenyl)amino]propanenitrile] |  | 0 to 25% | 
